Source: PubChem BioAssay AID1963971 (Molecular Pharmacology Branch, DTP, NCI, 2024)

Tested on: 953936-095-R-J2-PDC spheroids with HUVEC/MSC, viability
Assay: Anticancer human tumor 953936-095-R-J2-PDC patient-derived cervical squamous cell carcinoma cell line growth inhibition [PI3K]
Conditions: for IC50: curve of first compound; for viability, T/C: stronger effect = lower value; active = viability on the fitted dose curve at most 10% of control; inactive = the rest
Summary of the method: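 Tumor cells grown as multi-cell spheroids with HUVEC endothelial cells and MSC fibroblast-like stroma were treated with targeted agents combined with inavolisib, alpelisib, duvelisib or copanlisib. Doses fell in half-log steps from near clinical Cmax, else from 10 microM. Viability was measured.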

[1] = second compound 0.00316 µM, first compound 0.0316 µM
[2] = second compound 0.00316 µM, first compound 0.1 µM
[3] = second compound 0.00316 µM, first compound 0.316 µM
[4] = second compound 0.00316 µM, first compound 1 µM
[5] = second compound 0.00316 µM, first compound 3.16 µM
[6] = second compound 0.00316 µM, first compound 10 µM
[7] = second compound 0.01 µM, first compound 0.0316 µM
[8] = second compound 0.01 µM, first compound 0.1 µM
[9] = second compound 0.01 µM, first compound 0.316 µM
[10] = second compound 0.01 µM, first compound 1 µM
[11] = second compound 0.01 µM, first compound 3.16 µM
[12] = second compound 0.01 µM, first compound 10 µM
[13] = second compound 0.0316 µM, first compound 0.0316 µM
[14] = second compound 0.0316 µM, first compound 0.1 µM
[15] = second compound 0.0316 µM, first compound 0.316 µM
[16] = second compound 0.0316 µM, first compound 1 µM
[17] = second compound 0.0316 µM, first compound 3.16 µM
[18] = second compound 0.0316 µM, first compound 10 µM
[19] = second compound 0.1 µM, first compound 0.0316 µM
[20] = second compound 0.1 µM, first compound 0.1 µM
[21] = second compound 0.1 µM, first compound 0.316 µM
[22] = second compound 0.1 µM, first compound 1 µM
[23] = second compound 0.1 µM, first compound 3.16 µM
[24] = second compound 0.1 µM, first compound 10 µM
[25] = second compound 0.316 µM, first compound 0.0316 µM
[26] = second compound 0.316 µM, first compound 0.1 µM
[27] = second compound 0.316 µM, first compound 0.316 µM
[28] = second compound 0.316 µM, first compound 1 µM
[29] = second compound 0.316 µM, first compound 3.16 µM
[30] = second compound 0.316 µM, first compound 10 µM
[31] = second compound 1 µM, first compound 0.0316 µM
[32] = second compound 1 µM, first compound 0.1 µM
[33] = second compound 1 µM, first compound 0.316 µM
[34] = second compound 1 µM, first compound 1 µM
[35] = second compound 1 µM, first compound 3.16 µM
[36] = second compound 1 µM, first compound 10 µM
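Note: spheroids exposed to compounds for seven days before read-out.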

C#Cc1c(F)ccc2cc(O)cc(-c3ncc4c(N5CC6CCC(C5)N6)nc(OCC56CCCN5CC(F)C6)nc4c3F)c12 (stereo not given) + COc1c(OCCCN2CCOCC2)ccc2c3n(c(=NC(=O)c4cnc(N)nc4)nc12)CCN3
> 10000 nM: IC50 (second compound 0.00316 µM)
< 31.6 nM: IC50 (second compound 0.0316 µM) | IC50 (second compound 0.1 µM) | IC50 (second compound 0.316 µM) | IC50 (second compound 1 µM)
3920 nM: IC50 (second compound 0.01 µM)
inactive: viability, T/C [1] 81.9% | viability, T/C [2] 87.8% | viability, T/C [3] 86.6% | viability, T/C [4] 92.2% | viability, T/C [5] 72% | viability, T/C [6] 58.9% | viability, T/C [7] 75.5% | viability, T/C [8] 74.1% | viability, T/C [9] 69.1% | viability, T/C [10] 58.4% | viability, T/C [11] 54.3% | viability, T/C [12] 40% | viability, T/C [13] 40.1% | viability, T/C [14] 39.5% | viability, T/C [15] 38.7% | viability, T/C [16] 33.8% | viability, T/C [17] 25.7% | viability, T/C [18] 19.6% | viability, T/C [19] 18.3% | viability, T/C [20] 18.8% | viability, T/C [21] 14.1% | viability, T/C [22] 10.9%
active: viability, T/C [23] 8.08% | viability, T/C [24] 6.07% | viability, T/C [25] 5.75% | viability, T/C [26] 4.83% | viability, T/C [27] 4.36% | viability, T/C [28] 3.39% | viability, T/C [29] 2.56% | viability, T/C [30] 1.89% | viability, T/C [31] 1.56% | viability, T/C [32] 1.33% | viability, T/C [33] 0.98% | viability, T/C [34] 1.02% | viability, T/C [35] 0.79% | viability, T/C [36] 0.41%

C=CC(=O)N1CCN(c2nc(=O)n(-c3c(C)ccnc3C(C)C)c3nc(-c4c(O)cccc4F)c(F)cc23)C(C)C1 (stereo not given) + COc1c(OCCCN2CCOCC2)ccc2c3n(c(=NC(=O)c4cnc(N)nc4)nc12)CCN3
< 31.6 nM: IC50 (second compound 0.0316 µM) | IC50 (second compound 0.1 µM) | IC50 (second compound 0.316 µM) | IC50 (second compound 1 µM)
active: viability, T/C [25] 7.53% | viability, T/C [26] 7.13% | viability, T/C [27] 6.33% | viability, T/C [28] 6.9% | viability, T/C [29] 6.5% | viability, T/C [30] 3.82% | viability, T/C [31] 1.94% | viability, T/C [32] 1.84% | viability, T/C [33] 1.67% | viability, T/C [34] 1.83% | viability, T/C [35] 1.85% | viability, T/C [36] 1.04%
inactive: viability, T/C [1] 88.7% | viability, T/C [2] 91% | viability, T/C [3] 108% | viability, T/C [4] 106% | viability, T/C [5] 101% | viability, T/C [6] 93.1% | viability, T/C [7] 72.8% | viability, T/C [8] 79% | viability, T/C [9] 79.3% | viability, T/C [10] 84% | viability, T/C [11] 89.9% | viability, T/C [12] 91.9% | viability, T/C [13] 41.4% | viability, T/C [14] 43.6% | viability, T/C [15] 44.4% | viability, T/C [16] 46% | viability, T/C [17] 51.2% | viability, T/C [18] 45.1% | viability, T/C [19] 18.6% | viability, T/C [20] 18.4% | viability, T/C [21] 18.4% | viability, T/C [22] 20.2% | viability, T/C [23] 20.4% | viability, T/C [24] 15.2%
> 10000 nM: IC50 (second compound 0.00316 µM) | IC50 (second compound 0.01 µM)

CC(Cn1ccc(-c2ccc(C#N)c(Cl)c2)n1)NC(=O)c1cc(C(C)O)[nH]n1 (stereo not given) + COc1c(OCCCN2CCOCC2)ccc2c3n(c(=NC(=O)c4cnc(N)nc4)nc12)CCN3
< 31.6 nM: IC50 (second compound 0.0316 µM) | IC50 (second compound 0.1 µM) | IC50 (second compound 0.316 µM) | IC50 (second compound 1 µM)
active: viability, T/C [25] 7.44% | viability, T/C [26] 6.25% | viability, T/C [27] 7.53% | viability, T/C [28] 6.55% | viability, T/C [29] 7.13% | viability, T/C [30] 8.7% | viability, T/C [31] 1.6% | viability, T/C [32] 1.39% | viability, T/C [33] 2% | viability, T/C [34] 1.92% | viability, T/C [35] 2.08% | viability, T/C [36] 1.97%
> 10000 nM: IC50 (second compound 0.00316 µM) | IC50 (second compound 0.01 µM)
inactive: viability, T/C [1] 80.3% | viability, T/C [2] 88.3% | viability, T/C [3] 84.1% | viability, T/C [4] 101% | viability, T/C [5] 90.7% | viability, T/C [6] 89.2% | viability, T/C [7] 68.8% | viability, T/C [8] 71.6% | viability, T/C [9] 76.3% | viability, T/C [10] 71.1% | viability, T/C [11] 78.9% | viability, T/C [12] 70.2% | viability, T/C [13] 43.5% | viability, T/C [14] 40.9% | viability, T/C [15] 42.6% | viability, T/C [16] 39.8% | viability, T/C [17] 46.2% | viability, T/C [18] 41.1% | viability, T/C [19] 19.4% | viability, T/C [20] 19.4% | viability, T/C [21] 20.7% | viability, T/C [22] 20.3% | viability, T/C [23] 21.8% | viability, T/C [24] 19.8%

CC1(C)CCC(Nc2ncc(C(F)(F)F)c(-c3c[nH]c4c(P(C)(C)=O)c(C#N)ccc34)n2)CN1 (stereo not given) + COc1c(OCCCN2CCOCC2)ccc2c3n(c(=NC(=O)c4cnc(N)nc4)nc12)CCN3
31.6 nM: IC50 (second compound 0.00316 µM)
inactive: viability, T/C [1] 45.6% | viability, T/C [2] 47% | viability, T/C [3] 53.5% | viability, T/C [4] 47.1% | viability, T/C [5] 52% | viability, T/C [7] 46.2% | viability, T/C [8] 42.2% | viability, T/C [9] 49.5% | viability, T/C [10] 35.5% | viability, T/C [11] 44% | viability, T/C [13] 26.9% | viability, T/C [14] 22.6% | viability, T/C [15] 25.4% | viability, T/C [16] 25.5% | viability, T/C [17] 24.4% | viability, T/C [18] 1.19% | viability, T/C [19] 11.9% | viability, T/C [20] 16.5% | viability, T/C [21] 12.2%
< 31.6 nM: IC50 (second compound 0.01 µM) | IC50 (second compound 0.0316 µM) | IC50 (second compound 0.1 µM) | IC50 (second compound 0.316 µM) | IC50 (second compound 1 µM)
active: viability, T/C [6] 5.49% | viability, T/C [12] 6.01% | viability, T/C [22] 11.8% | viability, T/C [23] 8.68% | viability, T/C [24] 0.34% | viability, T/C [25] 5.51% | viability, T/C [26] 5.07% | viability, T/C [27] 3.84% | viability, T/C [28] 4.98% | viability, T/C [29] 3.94% | viability, T/C [30] 0.16% | viability, T/C [31] 1.33% | viability, T/C [32] 1.62% | viability, T/C [33] 1.12% | viability, T/C [34] 1.34% | viability, T/C [35] 1.37% | viability, T/C [36] 0.31%

Cn1nccc1Nc1nccc(-c2ccn(C(CO)c3ccc(Cl)c(F)c3)c(=O)c2)n1 (stereo not given) + COc1c(OCCCN2CCOCC2)ccc2c3n(c(=NC(=O)c4cnc(N)nc4)nc12)CCN3
< 31.6 nM: IC50 (second compound 0.0316 µM) | IC50 (second compound 0.1 µM) | IC50 (second compound 0.316 µM) | IC50 (second compound 1 µM)
inactive: viability, T/C [1] 79.8% | viability, T/C [2] 78.6% | viability, T/C [3] 85.1% | viability, T/C [4] 68.8% | viability, T/C [5] 69.8% | viability, T/C [6] 67.5% | viability, T/C [7] 63.5% | viability, T/C [8] 64.7% | viability, T/C [9] 67.3% | viability, T/C [10] 61.7% | viability, T/C [11] 59.4% | viability, T/C [12] 49.1% | viability, T/C [13] 39.4% | viability, T/C [14] 38.2% | viability, T/C [15] 36.2% | viability, T/C [16] 30.5% | viability, T/C [17] 32.3% | viability, T/C [18] 31.4% | viability, T/C [19] 16.1% | viability, T/C [20] 15.6% | viability, T/C [21] 12.8% | viability, T/C [22] 10.8%
active: viability, T/C [23] 8.15% | viability, T/C [24] 5.83% | viability, T/C [25] 4.89% | viability, T/C [26] 4.56% | viability, T/C [27] 3.55% | viability, T/C [28] 2.04% | viability, T/C [29] 1.28% | viability, T/C [30] 1.21% | viability, T/C [31] 1.1% | viability, T/C [32] 1.11% | viability, T/C [33] 0.44% | viability, T/C [34] 0.35% | viability, T/C [35] 0.28% | viability, T/C [36] 0.34%
> 10000 nM: IC50 (second compound 0.00316 µM) | IC50 (second compound 0.01 µM)
